Data taken from US6974804B2, “Esters” (Unilever Home & Personal Care USA, division of Conopco, Inc., priority 2000, dated 2005).

Key:
Type in all cases: physicochemical
[1] = DSC of gels: fibre dissolution temperature (FDT) and solubility of structurant; settings: for Solubility of structurant at 25° C.: from DSC of gel, relative to benchmark REF 2; for FDT: gel heated at 5 K/min in DSC, peak temperature of the highest peak
Method: In this Example the Fibre dissolution temperature (FDT) is measured in the DSC process described later herein, by observing when the fibres dissolve whilst the temperature of sample rises. FDT is taken to be the peak temperature of the highest peak.
In REF2 and REF3, the acyl substituents at the other seven cellobiose sites are nonanoyl.
Samples of gel (about 20 mg) were sealed in stainless steel capsules for DSC. An empty stainless steel capsule was used as the physical reference. The samples were subjected to the following temperature programme:
The sample was heated to 100° C. and held at 100° C. for 1 minute, in order to obtain an isotropic solution. The sample was then cooled at 5 K/min to −20° C. The sample was held at −20° C. for 1 minute. The sample is now a gel on the bottom of the sample capsule prepared in a reproducible manner. The gel was then heated at 5 K/min to 100° C. Data was also obtained with empty stainless steel pans as both physical sample and reference. This blank data was later subtracted from the sample data to remove any curvature in the base line.

[2] = Stability testing of gels: crystal growth visible by eye on storage at 37° C.; settings: for Observation: 10% structurant in 60:40 Panalene L14E:DC245; for Observations: 9% of REF1 and 1% of additional structurant
[3] = Visual assessment score (clarity of gel in 1 cm cuvette); settings: for Clarity Visual (assessment score): 9% REF2 and 1% of the specified ester in 60:40 hydrogenated polydecene:DC245, scale −12 to 8; for Clarity Visual (appearance): 60:40 hydrogenated polydecene:DC245 gelled with 9% REF2 and 1% of the specified cellobiose ester
How it was run: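 A gel in a 1 cm cuvette was laid on white paper printed with 21 graded sets of black figures, numbered −12 (largest, thickest) to 8 (smallest, thinnest). The score was the highest-numbered set read clearly through the gel, with higher meaning clearer.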

[4] = Light transmission at 580 nm (% T); settings: for Clarity % T: 9% REF2 and 1% of the specified ester in 60:40 hydrogenated polydecene:DC245, 580 nm
Method: The translucency of a composition may be measured by placing a sample of standardised thickness in the light path of a spectrophotometer and measuring transmittance, as a percentage of light transmitted in the absence of the gel.
This test was carried out using a dual-beam spectrophotometer. The sample of composition was poured hot into a 4.5 ml cuvette made of poly(methyl-methacrylate) (PMMA) and allowed to cool to an ambient temperature of 20-25° C. Such a cuvette gives a 1 cm thickness of composition. […] A transmittence measured at any temperature in the range from 20-25° C. is usually adequately accurate, but measurement is made at 22° C. if more precision is required.

[5] = Gelling of water-immiscible cosmetic liquids in 96 well glass micro-titre plate; set-up: key: gel; g4: gel after overnight (18 hrs) storage at 4° C.; g22: gel after overnight (18 hrs) storage at 22° C.; sg: soft gel; sg22: soft gel after overnight (18 hrs) storage at 22° C.; solution; *: the test at 4° C. was not carried out; settings: for gelling of ISA: 150° C. 2.5 hours, cooled to ambient
How it was run: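 Gel formation was scored by eye and by poking with a micro-spatula at three points: on cooling to room temperature, after 18 h at 18 °C, and after another 18 h at 4 °C. Before this, mixtures of cosmetic liquid with roughly 5% or 10% cellobiose ester were heated at 150 °C for 2.5 h.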

## CCCCCCCCC(=O)OC[C@H]1O[C@@H](O[C@H]2[C@H](OC(=O)CCCCCCCC)[C@@H](OC(=O)CCCCCCCC)C(OC(=O)CCCCCCCC)O[C@@H]2COC(=O)CCCCCCCC)[C@H](OC(=O)CCCCCCCC)[C@@H](OC(=O)CCCCCCCC)[C@@H]1OC(=O)CCCCCCCC (stereo partly shown) [REF 2, cellobiose octanonanoate]
[1]
  Solubility of structurant at 25° C.: Benchmark. Some
  FDT: 47 °C
[2]; after 7 days at 37° C.
  Observation: Slight loss of clarity after 7 days
[2]; after 7 days at 37° C., listed as REF2
  Observation: Slight loss of clarity after 7 days at 37 °C
[2]; after 8 days at 37° C.
  Observation: Fine crystals on surface after 8
[2]; after 8 days at 37° C., listed as REF2
  Observation: Fine crystals on surface after 8 days at 37 °C
[2]; after 9 days at 37° C.
  Observation: Fine needle crystals throughout gel
[2]; after 9 days at 37° C., listed as REF2
  Observation: Fine needle crystals throughout gel after 9
[2]; after 13 days at 37° C., listed as REF2
  Observation: More needle crystals in gel bulk and crystal
[2]; after 17 days at 37° C.
  Observation: Large amount of crystals throughout
[3]
  Clarity Visual (assessment score): slight haze 5
  Clarity Visual (appearance): transparent/
[4]
  Clarity % T: 41%
[4]; CHME = Ex 1.12, CHME:REF2 at stated weight ratio, total 10% in 60:40 Silkflo 364NF:DC245
  % T Ex 1.12: 41%
[4]; CHME = Ex 1.13, CHME:REF2 at stated weight ratio, total 10% in 60:40 Silkflo 364NF:DC245
  % T Ex 1.13: 41%

## CCCCCCCCC(=O)OCC1OC(OC2C(COC(=O)CCCCCCCC)OC(OC(=O)c3ccccc3)C(OC(=O)CCCCCCCC)C2OC(=O)CCCCCCCC)C(OC(=O)CCCCCCCC)C(OC(=O)CCCCCCCC)C1OC(=O)CCCCCCCC (mixture of isomers) [Ex 1.2]
[5]; 5% cellobiose ester in DC556
  gelling of DC556: gel
[5]; 5% cellobiose ester in Finsolv TN
  gelling of Finsolv TN: sol
[5]; 5% cellobiose ester in Fluid AP
  gelling of Fluid AP: sg
[5]; 5% cellobiose ester in IPM
  gelling of IPM: sol
[5]; 5% cellobiose ester in ISA
  gelling of ISA: sg
[5]; 5% cellobiose ester in Mineral oil
  gelling of Mineral oil: sg
[5]; 5% cellobiose ester in Polydecene
  gelling of Polydecene: gel
[5]; 10% cellobiose ester in DC556
  gelling of DC556: gel
[5]; 10% cellobiose ester in Finsolv TN
  gelling of Finsolv TN: sol
[5]; 10% cellobiose ester in Fluid AP
  gelling of Fluid AP: gel
[5]; 10% cellobiose ester in IPM
  gelling of IPM: sol
[5]; 10% cellobiose ester in ISA
  gelling of ISA: gel
[5]; 10% cellobiose ester in Mineral oil
  gelling of Mineral oil: gel
[5]; 10% cellobiose ester in Polydecene
  gelling of Polydecene: gel
[1]
  Solubility of structurant at 25° C.: Less soluble. No
  FDT: 67 °C
[2]; after 17 days at 37° C.
  Observation: No crystals after 17 days.
[3]
  Clarity Visual (assessment score): translucent 4
  Clarity Visual (appearance): transparent/
[4]
  Clarity % T: 38%

## CCCCCCCCC(=O)OCC1OC(OC2C(COC(=O)CCCCCCCC)OC(OC(=O)CCCCCCCC)C(OC(=O)CCCCCCCC)C2OC(=O)CCCCCCCC)C(OC(=O)CCCCCCCC)C(OC(=O)CCCCCCCC)C1OC(=O)CCCCCCCC (mixture of isomers) [REF 3, reference compound]
[1]
  Solubility of structurant at 25° C.: Slightly less soluble
  FDT: 47 °C
[2]; after 1 day at 37° C.
  Observations: Some crystal growth on gel surface after
[2]; after 9 days at 37° C.
  Observations: Crystals throughout gel after 9 days at
[2]; after 13 days at 37° C.
  Observations: 37° C.; More crystals throughout gel after
[3]
  Clarity Visual (assessment score): translucent 4
  Clarity Visual (appearance): transparent/
[4]
  Clarity % T: 46%
